From patent publication US10883143B2, “Compositions and methods for enhancing odorant receptor activity” (DUKE UNIVERSITY, priority 2009, dated 2021)
Entries after “also recorded” stand apart in the source; their conditions may differ.

Experiments:
[1] = target: T1, OR-S6 coexpressed with M3 (Mus musculus, UniProt Q9ERZ3); experiment: CRE-luciferase reporter assay of OR activation in HEK293T cells; format: cell-based
T1 construct: The open reading frames were amplified using Phusion polymerase; expressed in transfected cells; host or cells: HEK293T
Experimental: (§1) Given that GPCRs that form heteromeric interactions often show functional co-modulation, experiments were conducted to determine if altering M3 activity directly affects the odor-mediated activation of ORs. […] HEK293T cells Hana3A cells were maintained in minimal essential medium (MEM) containing 10% fetal bovine serum (M10) and penicillin-streptomycin and amphotericin solution. Lipofectamine 2000 (Invitrogen) was used for transfection following manufacturer's protocols. […] Briefly, cAMP response element (CRE)-luciferase (Stratagene) was used to measure OR activation. […] Cells were plated on poly-D-lysine-coated 96-well plates (NUNC) 2 days prior to assay. Cells were transfected with ORs in either Hana3A or HEK293T cell lines along with various combinations of RTP1S, Ric-8b, M3, CRE-luciferase, and pRL-SV40. 18-24 hours after transfection, cells were rinsed with 50 μl of CD293 (Invitrogen) and stimulated with 25 μl of odorant solution dissolved in CD293. Cells were incubated for 4 hours at 37° C. and 5% CO2 before luciferase assays. Protocols for measuring luciferase and Renilla luciferase activities were as described by the manufacturer (Promega). Normalized luciferase activity was calculated with the formula (LN−Lmin)/(Lmax−Lmin), where LN is the luminescence of firefly luciferase in response to the odorant, Lmin is the minimum luciferase value on a plate or set of plates, and Lmax is the maximum luciferase value on a plate or set of plates. The data was analyzed with Microsoft Excel and GraphPad Prism 5. Odorants and muscarinic agonists and antagonists were from Sigma except for darifenacin, which was purchased from Santa Cruz.

[2] = tested on: OR-S6, RTP1S and M3 coexpressed; experiment: Alphascreen cAMP assay in HEK293T cells; format: cell-based, mouse
Experimental: When OR, RTP1S, and M3 were coexpressed, the background level was slightly higher than other conditions.
Alphascreen cAMP assay (Perkin Elmer) was used to measure changes of cAMP. Cells were plated on 96-cell plate (poly D lysine coated, NUNC). 24 hours after transfection, cells were washed in Hanks containing 5 mM HEPES, 0.1% BSA and 500 uM IBMX for 30 minutes. The cells were then stimulated with Hanks containing 5 mM HEPES, 0.1% BSA and 500 uM IBMX and corresponding chemicals. The stimulated cells were incubated for 10 min at room temperature before lysis. The manufacture's protocol was used to measure cAMP.

[3] = tested on: olfactory sensory neurons (OSNs); experiment: Calcium imaging of acutely dissociated OSNs stimulated with a mix of 10 odorants; format: cell-based, mouse; details: paired T-test
[4] = tested on: OR-S6 coexpressed with M3; experiment: CRE-luciferase reporter assay of OR activation in HEK293T cells; format: cell-based, mouse; details: HEK293T coexpressing OR-S6, RTP1S and M3 vs. without M3
Experimental: as §1

M3 = target: T2, M3 (Mus musculus, UniProt Q9ERZ3); experiment: Calcium imaging with HEK293T cells expressing M3; format: cell-based; details: carbachol 10^−7M
T2 construct: The open reading frames were amplified using Phusion polymerase; expressed in transfected cells; host or cells: HEK293T
Excerpt: (§2) Since M3 potentiates OR signaling, the possibility that OR activation may also enhance M3 signaling was considered.

OR-S6 = experiment: Calcium imaging with HEK293T cells expressing OR-S6 without M3; format: cell-based, mouse
Experimental: as §2
Calcium imaging with HEK293T cells was performed as described (see, e.g., Y. Ishimaru et al., Proc Natl Acad Sci USA 103, 12569 (Aug. 15, 2006); herein incorporated by reference in its entirety).

[5] = tested on: OR-S6 coexpressed with M3; experiment: Calcium imaging with HEK293T cells coexpressing OR-S6 and M3; format: cell-based, mouse; details: for calcium response to odor alone: OR-S6 and its cofactors (mRTP) coexpressed with M3, 10^−4M nonanedioic acid
Excerpt: as §2

T2 sequence (Q9ERZ3 whole entry): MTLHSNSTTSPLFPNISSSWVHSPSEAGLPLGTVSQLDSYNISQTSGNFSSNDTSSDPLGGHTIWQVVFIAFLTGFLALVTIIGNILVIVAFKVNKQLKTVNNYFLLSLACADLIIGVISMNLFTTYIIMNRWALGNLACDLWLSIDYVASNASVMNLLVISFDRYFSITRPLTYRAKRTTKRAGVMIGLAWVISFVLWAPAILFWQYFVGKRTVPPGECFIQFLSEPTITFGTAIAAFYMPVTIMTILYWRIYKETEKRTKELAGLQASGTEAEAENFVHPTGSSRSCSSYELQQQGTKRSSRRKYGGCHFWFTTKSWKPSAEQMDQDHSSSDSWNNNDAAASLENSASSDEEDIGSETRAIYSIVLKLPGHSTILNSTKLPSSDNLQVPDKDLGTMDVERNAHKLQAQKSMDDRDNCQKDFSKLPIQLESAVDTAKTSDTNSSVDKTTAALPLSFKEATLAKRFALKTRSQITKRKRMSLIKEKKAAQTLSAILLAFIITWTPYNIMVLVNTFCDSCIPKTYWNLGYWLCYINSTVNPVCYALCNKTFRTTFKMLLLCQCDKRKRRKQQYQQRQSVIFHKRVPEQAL
T1 sequence (Q9ERZ3 whole entry): as above

CN1[C@@H]2CC[C@H]1C[C@@H](OC(=O)C(CO)c1ccccc1)C2 (stereo partly drawn) [atropine]
OR-S6 activation by nonanedioic acid on co-stimulation with muscarinic ligand [1]: hindered the potentiation effect of M3

C[N+](C)(C)CCOC(N)=O [carbachol]
rise in cAMP following OR stimulation, costimulation with carbachol ([2]; carbachol 10^−7M, HEK293T transfected with OR-S6, RTP1S and M3): even more dramatic; also recorded: further stimulates production of cAMP

NC(=O)C(c1ccccc1)(c1ccccc1)[C@@H]1CCN(CCc2ccc3c(c2)CCO3)C1 [darifenacin]
odor-mediated calcium responses of OSNs (Fluo-4/Fura-red ratio, Anet) ([3]; 10^−7M antagonist with mix of 10 odorants each at 10^−5M): significantly attenuated | odor-mediated calcium responses of OSNs (Fluo-4/Fura-red ratio, Anet) ([3]; 10^−7M antagonist with mix of 10 odorants each at 10^−5M, listed as darifenecin): attenuated odor-mediated responses of OSNs

C[C@H](CCC(=O)O)C[C@H](C)C[C@H](C)C(=O)/C=C(\O)[C@H](C)C[C@H](C)C/C=C/[C@@H](C)[C@@H](O)[C@@H](C)[C@@H](O)C[C@@H]1CC[C@@](C)([C@H]2CC[C@@](C)([C@@H](C)O)O2)O1 [ionomycin]
CRE-luciferase reporter response without OR ligands [4]: reporter gene responses were not seen | CRE-luciferase reporter response without OR ligands ([4]; listed as Ionomycin): had no effect on OR activation

O=C(O)CCCCCCCC(=O)O [nonanedioic acid]
calcium response (M3): No response was observed | calcium response (OR-S6; HEK293T cells expressing OR-S6 alone): No calcium response was observed | calcium response (OR-S6; cells coexpressing OR and Gα15olf (positive control)): generate a calcium response | calcium response (OR-S6; cells coexpressing OR and Gα15olf (positive control), listed as nonandioic acid): increase cellular calcium | calcium response to odor alone [5]: strong calcium response | calcium response to odor alone ([5]; listed as nonandioic acid): calcium level increases | calcium response ([5]; cells expressing both S6 and M3 in the absence of RTP): does not elicit a calcium response | cellular cAMP levels following stimulation with OR-S6 ligand ([2]; cells coexpressing OR-S6, RTP1S and M3 vs. without M3): dramatic increase in cellular cAMP levels

O[Si](CCCN1CCCCC1)(c1ccc(F)cc1)C1CCCCC1 (stereo not drawn) [pfHHSiD]
odor-mediated calcium responses of OSNs (Fluo-4/Fura-red ratio, Anet) ([3]; 10^−6M antagonist with mix of 10 odorants each at 10^−5M): Equivalent results; also recorded: attenuated odor-mediated responses of OSNs
